Here are results for 1 molecule from patent US20150159141A1, “ISOLATED HUMAN LIVER TUMOR CELL LINE AND METHOD OF AGENT SCREENING” (Industrial Technology Research Institute, priority 2013, published 2015).

The test system of assay [1] is human liver tumor cell line ITRI-H28. Nature of the assay: Cell viability of ITRI-H28 cells after Sorafenib treatment (Alarmablue assay). Type of assay: cell-based. The following applies: 48-hour treating period, P value 0.02, read-out: half maximal inhibitory concentration (IC50). As for the experimental part:
In the experiment, a plurality of plates are prepared with 1×10^4 ITRI-H28 cells seeded respectively thereon and divided into a plurality of groups, and the groups are treated with different concentrations of Sorafenib, such as 30, 15, 7.5, 3.75, 1.88, and 0.94 uM. Next, after a 48-hour treating period, a cell viability of each of the groups is measured by an Alarmablue measurement assay, and results are shown in FIG. 3.
A calculation is done according to the results of FIG. 3, a half maximal inhibitory concentration (IC50) of Sorafenib in the ITRI-H28 cell line are about 2.79±0.41, and a statistical P value is 0.02. According to the above results, the human liver tumor cell line ITRI-H28 has a susceptibility to the HCV-related HCC drug, which is able to use in a HCV-related HCC drug screening. Furthermore, according to the above experiments, the human liver tumor cell line ITRI-H28 has cancer cell properties, which can be used widely in a liver drug screening.

For assay [2], the system named is liver cancer. The following applies: phase III of human clinical trials; cited from earlier work.

In the case of `CNC(=O)c1cc(Oc2ccc(NC(=O)Nc3ccc(Cl)c(C(F)(F)F)c3)cc2)ccn1` [Sorafenib], in assay [1], the IC50 was around 2790 nM. In addition, the “extension of patient survival time” value in assay [2] is recorded as “three”.
